From the supplement of paper PMC10627819

What was measured:
S. pneumoniae D39V = assay: fitness (endpoint OD595 vs no drug) (fraction); higher = more growth
Procedure, shortened: (§1)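 In 384-well plates at 37 °C, cultures began at OD595 0.01 in 30 µl, with 55 µl used for S. pneumoniae. OD595 readings every 30 min for 14 h were corrected by the first reading. Fitness divides the stationary-phase transition optical density by the robust mean of no-drug control wells. The result is capped at 1.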

S. aureus Newman = assay: as above
Procedure, shortened: as §1
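Further: OD595 on entry to stationary phase over no-drug wells; at most 1.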

CC[C@H]1OC(=O)[C@H](C)[C@@H](O[C@H]2C[C@@](C)(OC)[C@@H](O)[C@H](C)O2)[C@H](C)[C@@H](O[C@@H]2O[C@H](C)C[C@H](N(C)C)[C@H]2O)[C@](C)(OC)C[C@@H](C)C(=O)[C@H](C)[C@@H](O)[C@]1(C)O [Clarithromycin] + CO/N=C(\C(=O)N[C@@H]1C(=O)N2C(C(=O)[O-])=C(C[N+]3(C)CCCC3)CS[C@H]12)c1csc(N)n1 [Cefepime]
fitness, S. pneumoniae D39V, one replicate
Conditions	first compound 0.007812 µg/mL	first compound 0.01562 µg/mL	first compound 0.03125 µg/mL
partner 0.0078 µg/mL	0.887	0.866	0.673
partner 0.0155 µg/mL	0.884	0.834	0.635
partner 0.031 µg/mL	0.456	0.491	0.456

fitness, S. pneumoniae D39V
Conditions	first compound 0.0625 µg/mL	first compound 0.07 µg/mL	first compound 0.125 µg/mL	first compound 0.14 µg/mL	first compound 0.25 µg/mL	first compound 0.28 µg/mL
partner 0.007 µg/mL	0.67	–	0.43	–	0.165	–
partner 0.0078 µg/mL	–	0.187	–	0.0821	–	0.103
partner 0.014 µg/mL	0.675	–	0.458	–	0.181	–
partner 0.0155 µg/mL	–	0.168	–	0.105	–	0.108
partner 0.028 µg/mL	0.611	–	0.358	–	0.136	–
partner 0.031 µg/mL	–	0.0769	–	0.102	–	0.091

CC[C@H]1OC(=O)[C@H](C)[C@@H](O[C@H]2C[C@@](C)(OC)[C@@H](O)[C@H](C)O2)[C@H](C)[C@@H](O[C@@H]2O[C@H](C)C[C@H](N(C)C)[C@H]2O)[C@](C)(OC)C[C@@H](C)C(=O)[C@H](C)[C@@H](O)[C@]1(C)O [Clarithromycin] + CO[C@@]12[C@H](COC(N)=O)C3=C(C(=O)C(C)=C(N)C3=O)N1C[C@@H]1N[C@@H]12 [Mitomycin C]
fitness, S. pneumoniae D39V, one replicate
Conditions	first compound 0.007812 µg/mL	first compound 0.01562 µg/mL	first compound 0.03125 µg/mL
partner 0.002 µg/mL	0.798	0.763	0.596
partner 0.004 µg/mL	0.727	0.692	0.539
partner 0.008 µg/mL	0.546	0.558	0.379

fitness, S. pneumoniae D39V
Conditions	first compound 0.0625 µg/mL	first compound 0.07 µg/mL	first compound 0.125 µg/mL	first compound 0.14 µg/mL	first compound 0.25 µg/mL	first compound 0.28 µg/mL
partner 0.001075 µg/mL	0.654	–	0.345	–	0.084	–
partner 0.002 µg/mL	–	0.139	–	0.0901	–	0.0614
partner 0.00215 µg/mL	0.642	–	0.285	–	0.108	–
partner 0.004 µg/mL	–	0.142	–	0.0707	–	0.0988
partner 0.0043 µg/mL	0.526	–	0.245	–	0.0525	–
partner 0.008 µg/mL	–	0.0708	–	0.039	–	0.0676

CCC[C@@H]1C[C@@H](C(=O)N[C@@H]([C@H]2O[C@H](SC)[C@H](O)[C@@H](O)[C@H]2O)[C@H](C)Cl)N(C)C1 [Clindamycin] + CC1(C)S[C@@H]2[C@H](NC(=O)Cc3ccccc3)C(=O)N2[C@H]1C(=O)O [Penicillin G]
fitness, S. aureus Newman
Conditions	first compound 0.0312 µg/mL	first compound 0.0625 µg/mL	first compound 0.125 µg/mL
partner 0.0195 µg/mL	0.639	0.416	0.0886
partner 0.039 µg/mL	0.708	–	0.0624
partner 0.078 µg/mL	–	–	0.0543

CCC[C@@H]1C[C@@H](C(=O)N[C@@H]([C@H]2O[C@H](SC)[C@H](O)[C@@H](O)[C@H]2O)[C@H](C)Cl)N(C)C1 [Clindamycin] + CC[C@H]1OC(=O)[C@H](C)[C@@H](O[C@H]2C[C@@](C)(OC)[C@@H](O)[C@H](C)O2)[C@H](C)[C@@H](O[C@@H]2O[C@H](C)C[C@H](N(C)C)[C@H]2O)[C@](C)(OC)C[C@@H](C)C(=O)[C@H](C)[C@@H](O)[C@]1(C)O [Clarithromycin]
fitness, S. pneumoniae D39V
Conditions	first compound 0.0125 µg/mL	first compound 0.015 µg/mL	first compound 0.025 µg/mL	first compound 0.03 µg/mL	first compound 0.05 µg/mL	first compound 0.06 µg/mL
partner 0.0625 µg/mL	0.563	–	0.422	–	0.164	–
partner 0.07 µg/mL	–	0.136	–	0.11	–	0.0799
partner 0.125 µg/mL	0.409	–	0.338	–	0.109	–
partner 0.14 µg/mL	–	0.087	–	0.081	–	0.115
partner 0.25 µg/mL	0.181	–	0.121	–	0.0631	–
partner 0.28 µg/mL	–	0.0757	–	0.0789	–	0.0946

fitness, S. pneumoniae D39V, one replicate
Conditions	first compound 0.015 µg/mL	first compound 0.03 µg/mL	first compound 0.06 µg/mL
partner 0.007812 µg/mL	0.728	0.578	0.283
partner 0.01562 µg/mL	0.746	0.637	0.371
partner 0.03125 µg/mL	0.635	0.557	0.175
